Here are results for two compounds from patent US20030034248A1, “Electrodeposition baths containing boron-containing compounds and methods related thereto” (priority 2001, published 2003).

The test deals with bacteria. The experiment in a line: Bacteria resistance testing: bacteria counts (spread plate, R2A agar) in infected electrodeposition ultrafiltrate permeate. Type of test: cell-based. The conditions noted are these: for Bacteria Count 3 day: plated at 3 days; for Bacteria Count 7 day: plated at 7 days; for Bacteria Count 10 day: plated at 10 days. How it is done: Infected ultrafiltrate from an online electrodeposition bath tank (containing E6100H, commercially available from PPG Industries, Inc.) having a bacterial count of 4.5×10^6 cfu/mL was used to inoculate filter-sterilized ultrafiltrate (“permeate”) collected from the same line. The infected ultrafiltrate was diluted by a factor of 10^4 into the sterile permeate. The infected permeate was added to reactors. The various acids listed below in the following Table 2 were prepared as 1 % solutions in water and tested at 2000, 1000, 500, 200, 100, and 50 ppm of active material. Reactors were rolled for 10 days at 32° C. and were plated for bacteria counts at 3, 7, and 10 days.
The enumeration of […] heterotrophs in the reactors utilized the standard spread plate method as described in Standard Methods for the Examination of Water and Wastewater, 1992, section 9215C. Bacterial counts were examined using R2A agar plates. 100 μL of a suitable dilution of sample was pipetted onto the surface of the media and spread with an alcohol and flame sterilized glass rod. The plates were inverted and incubated for 3 days at 32° C. with periodic examination. Colony forming units were counted on a New Brunswick Bactronic Colony Counter. A target of 30 to 300 cfu per plate was considered a valid count.

The mark [1] stands for this setting: acid at 50 ppm of active material (boric acid: 8.9 ppm B), 32° C.
Where [2] appears, read: acid at 100 ppm of active material (boric acid: 17.8 ppm B), 32° C.
The mark [3] stands for this setting: acid at 200 ppm of active material (boric acid: 35.5 ppm B), 32° C.
[4] abbreviates: acid at 500 ppm of active material (boric acid: 89 ppm B), 32° C.
The mark [5] stands for this setting: acid at 1000 ppm of active material (boric acid: 177.5 ppm B), 32° C.
Where [6] appears, read: acid at 2000 ppm of active material (boric acid: 355 ppm B), reactors rolled at 32° C.

Where only a bound is given, the exact number is not on record here.

With `CC(O)C(=O)O` (stereo not shown) [Lactic Acid, reference compound], the “Bacteria Count 3 day” value was 9.2 × 10^5 under setting [1]; 8.8 × 10^5 under setting [2]; 1.5 × 10^6 under setting [3]; 1.6 × 10^7 under setting [4]; 9.6 × 10^6 under setting [5]; 2.1 × 10^6 under setting [6]. Besides, the “Bacteria Count 7 day” value is reported as 4.4 × 10^7 under setting [1]; 4.4 × 10^7 under setting [2]; 1.6 × 10^7 under setting [3]; 4.0 × 10^7 under setting [4]; 3.2 × 10^7 under setting [5]; 4.8 × 10^7 under setting [6]. The “Bacteria Count 10 day” value reads like this: under setting [1], 3.8 × 10^7; under setting [2], 2.4 × 10^6; under setting [3], 1.2 × 10^7; under setting [4], 2.8 × 10^6; under setting [5], <4.0 × 10^5; under setting [6], 1.1 × 10^7.
Turning to `OB(O)O` [Boric Acid], the “Bacteria Count 3 day” value is, setting by setting: under setting [1], 8.8 × 10^2; under setting [2], 3.0 × 10^2; under setting [3], 3.6 × 10^2; under setting [4], <4.0 × 10^1; under setting [5], <4.0 × 10^1; under setting [6], <4.0 × 10^1. For the same compound, the “Bacteria Count 7 day” value is listed as 4.6 × 10^6 under setting [1]; 5.6 × 10^5 under setting [2]; 2.8 × 10^3 under setting [3]; <4.0 × 10^1 under setting [4]; <4.0 × 10^1 under setting [5]; <4.0 × 10^1 under setting [6]. The “Bacteria Count 10 day” value is recorded as 4.0 × 10^3 under setting [1]; 1.4 × 10^7 under setting [2]; 2.0 × 10^6 under setting [3]; <4.0 × 10^1 under setting [4]; <4.0 × 10^1 under setting [5]; <4.0 × 10^1 under setting [6]. For the same compound, the “levels at which the growth of bacteria is retarded” value (as compared to lactic acid in an analogous composition, summary of Table 2) was no less than 500 ppm.
